The record followed here is patent US9796711B2, “Substituted pyrazolo[3,4-b]pyridin-6-carboxylic acids and method of use” (AbbVie S.àr.l., priority 2015, dated 2017).

The target in assay [1] is T1, ΔF508-CFTR (Homo sapiens, UniProt P13569, DEL508-508).
T1 construct: host or cells: CFBE41o-, doxycycline-inducible
The experiment in a line: CFTR cell surface levels using HRP-tagged ΔF508-CFTR expressing CFBE cells, in the presence of a co-corrector. It is filed as cell-based. Conditions: HRP-tagged ΔF508-CFTR expressing CFBE cells, in the presence of 3 μM co-corrector; for EC50: read-out: EC50. Summed up:
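Cells were seeded with 0.5 μg/mL doxycycline and held 68 h at 37 °C. Test compounds plus 3 μM co-corrector (final 0.1% DMSO) were then added for 20 h at 33 °C. Washed cells received HRP substrate, and luminescence was normalized between DMSO and 3 μM co-corrector controls.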

Assay [2] concerns the target T1, ΔF508-CFTR. The experiment in a line: CFTR cell surface levels using HRP-tagged ΔF508-CFTR expressing CFBE cells, intrinsic corrector capacity. As to conditions: for EC50: read-out: EC50. It is filed as cell-based. An outline of the steps: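 Here the cells express ΔF508-CFTR with horseradish peroxidase inserted in extracellular loop 4, so only rescued channel at the surface gives luminescent signal. Compounds act on their own, 20 h at the reduced temperature of 33 °C; values are percent activity relative to DMSO and a 3 μM corrector.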

Where [3] appears, read: HRP-tagged ΔF508-CFTR CFBE41o- cells, compounds alone (intrinsic corrector capacity), 20 hours at 33° C., positive control 3 μM corrector.
Where [4] appears, read: HRP-tagged ΔF508-CFTR CFBE41o- cells, compounds alone (intrinsic corrector capacity), 20 hours at 33° C.
Setting [5] is: HRP-tagged ΔF508-CFTR expressing CFBE cells, intrinsic corrector capacity (no co-corrector), 33° C., 20 hours.

T1 sequence (P13569 with tags, fused parts or gaps DEL508-508): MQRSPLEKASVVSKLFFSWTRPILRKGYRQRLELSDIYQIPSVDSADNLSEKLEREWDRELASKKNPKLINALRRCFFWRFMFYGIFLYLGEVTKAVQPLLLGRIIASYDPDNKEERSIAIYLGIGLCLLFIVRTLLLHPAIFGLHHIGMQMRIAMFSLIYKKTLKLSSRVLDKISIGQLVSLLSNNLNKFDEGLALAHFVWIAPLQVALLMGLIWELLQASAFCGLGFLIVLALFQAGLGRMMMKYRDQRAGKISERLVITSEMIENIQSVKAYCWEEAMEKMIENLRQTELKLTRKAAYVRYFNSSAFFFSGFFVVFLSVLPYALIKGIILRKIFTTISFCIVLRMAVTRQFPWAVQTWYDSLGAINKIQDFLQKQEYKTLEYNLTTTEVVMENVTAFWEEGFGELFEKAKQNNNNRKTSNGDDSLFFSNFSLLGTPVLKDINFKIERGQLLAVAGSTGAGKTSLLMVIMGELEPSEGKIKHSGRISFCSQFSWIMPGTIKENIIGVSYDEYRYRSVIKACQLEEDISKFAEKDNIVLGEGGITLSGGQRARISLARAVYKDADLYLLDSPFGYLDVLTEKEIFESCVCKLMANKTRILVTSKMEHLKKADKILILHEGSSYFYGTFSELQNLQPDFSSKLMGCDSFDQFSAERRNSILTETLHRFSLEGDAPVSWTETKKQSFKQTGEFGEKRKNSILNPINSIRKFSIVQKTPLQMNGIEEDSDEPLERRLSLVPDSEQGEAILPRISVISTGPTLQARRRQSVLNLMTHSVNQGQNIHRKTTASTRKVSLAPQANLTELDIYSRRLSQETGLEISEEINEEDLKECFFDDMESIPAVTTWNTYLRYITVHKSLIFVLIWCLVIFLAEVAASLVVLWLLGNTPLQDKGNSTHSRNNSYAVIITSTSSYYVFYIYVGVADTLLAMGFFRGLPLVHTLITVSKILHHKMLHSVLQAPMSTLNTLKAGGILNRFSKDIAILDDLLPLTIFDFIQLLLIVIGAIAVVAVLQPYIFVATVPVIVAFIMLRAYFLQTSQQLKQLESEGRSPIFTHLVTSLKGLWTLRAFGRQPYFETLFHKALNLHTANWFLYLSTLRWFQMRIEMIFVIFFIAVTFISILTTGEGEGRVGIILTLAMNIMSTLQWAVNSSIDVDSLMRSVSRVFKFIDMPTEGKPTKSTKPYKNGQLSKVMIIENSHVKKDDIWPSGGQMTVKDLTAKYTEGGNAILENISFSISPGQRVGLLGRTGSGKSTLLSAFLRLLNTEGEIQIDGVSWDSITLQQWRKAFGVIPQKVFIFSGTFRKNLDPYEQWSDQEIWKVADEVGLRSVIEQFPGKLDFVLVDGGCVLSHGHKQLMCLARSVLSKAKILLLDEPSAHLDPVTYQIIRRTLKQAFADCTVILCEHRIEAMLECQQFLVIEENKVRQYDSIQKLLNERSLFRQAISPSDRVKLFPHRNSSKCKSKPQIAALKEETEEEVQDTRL

For `CC(=O)N1CC(c2nn(-c3ccccc3)c3nc(C(=O)O)cc(-c4ccc(N5CCOCC5)cc4)c23)C1` [compound 78, 3-(1-acetylazetidin-3-yl)-4-[4-(morpholin-4-yl)phenyl]-1-phenyl-1H-pyrazolo[3,4-b]pyridine-6-carboxylic acid], the entries for the “% Activation” value at ΔF508-CFTR [1] and on ΔF508-CFTR [2] (setting [3]) were 132% and 10.784%, respectively. For the same compound, the EC50 at ΔF508-CFTR [1] and on ΔF508-CFTR [2] (setting [4]) was greater than 10000 nM throughout.

In the case of `N#CC1CCN(c2ccc(-c3cc(C(=O)O)nc4c3c(OC3CCOC3)nn4-c3ccccc3)cn2)CC1` (stereo not shown) [compound 591, 4-[6-(4-cyanopiperidin-1-yl)pyridin-3-yl]-3-[(oxolan-3-yl)oxy]-1-phenyl-1H-pyrazolo[3,4-b]pyridine-6-carboxylic acid], at ΔF508-CFTR [1], the “% Activation” value amounted to 286.4% and the EC50 turned out to be 450 nM. In addition, at ΔF508-CFTR [2] (setting [5]), the “% Activation” value was determined as 106.3% and the concentration giving a half-maximal response (EC50) came out at 926 nM.

Turning to `O=C(O)c1cc(N2CCC(N3CCOCC3)CC2)c2c(C3CCC3)nn(-c3ccc4c(c3)OC(F)(F)O4)c2n1` [compound 906, 3-cyclobutyl-1-(2,2-difluoro-2H-1,3-benzodioxo1-5-yl)-4-[4-(morpholin-4-yl)piperidin-1-yl]-1H-pyrazolo[3,4-b]pyridine-6-carboxylic acid], at ΔF508-CFTR [1], the “% Activation” value stood at 485.34% and the concentration for a half-maximal effect (EC50) is 72.8 nM. Moreover, at ΔF508-CFTR [2] (setting [5]), the “% Activation” value turned out to be 276.92% and the EC50 was 146 nM.

Turning to `O=C(O)c1cc(CN2CCC(N3CCOCC3)CC2)c2c(C3CCC3)nn(-c3ccc(F)cc3)c2n1` [compound 893, 3-Cyclobutyl-1-(4-fluoro-phenyl)-4-(4-morpholin-4-yl-piperidin-1-ylmethyl)-1H-pyrazolo[3,4-b]pyridine-6-carboxylic acid], the figures for the “% Activation” value at ΔF508-CFTR [1] and on ΔF508-CFTR [2] (setting [5]) were 236.6% and 55.75%, respectively. Further, the half-maximal effective concentration (EC50) came out at 3330 nM at ΔF508-CFTR [1] and 3140 nM on ΔF508-CFTR [2] (setting [5]).

Take `CC(C)OC1CCN(c2cc(C(=O)O)nc3c2c(C2CCC2)nn3-c2ccccc2)CC1` [compound 372, 3-cyclobutyl-1-phenyl-4-{4-[(propan-2-yl)oxy]piperidin-1-yl}-1H-pyrazolo[3,4-b]pyridine-6-carboxylic acid]: the “% Activation” value worked out at 388.6% on ΔF508-CFTR [1] and 179% on ΔF508-CFTR [2] (setting [3]). Further, the EC50 at ΔF508-CFTR [1] turned out to be 126 nM; at ΔF508-CFTR [2] (setting [4]) it was 262 nM.

Turning to `Cc1cccc(-n2nc(C(C)C)c3c(N4CC5CN(C(=O)OC(C)(C)C)CC5C4)cc(C(=O)O)nc32)c1` (stereo not shown) [compound 216, 4-[5-(tert-butoxycarbonyl)hexahydropyrrolo[3,4-c]pyrrol-2(1H)-yl]-1-(3-methylphenyl)-3-(propan-2-yl)-1H-pyrazolo[3,4-b]pyridine-6-carboxylic acid], the “% Activation” value at ΔF508-CFTR [1] amounted to 431.7%; on ΔF508-CFTR [2] (setting [3]) it was 161%. Also, the EC50 came out at 1110 nM on ΔF508-CFTR [1] and 1010 nM at ΔF508-CFTR [2] (setting [4]).

For the compound `CC(C)c1nn(-c2ccc(F)cc2)c2nc(C(=O)O)cc(N3CCC(N4CCN(C)CC4)CC3)c12` [compound 753, 1-(4-fluorophenyl)-4-[4-(4-methylpiperazin-1-yl)piperidin-1-yl]-3-(propan-2-yl)-1H-pyrazolo[3,4-b]pyridine-6-carboxylic acid], on ΔF508-CFTR [1], the “% Activation” value is 377.6% and the EC50 is 301 nM. In addition, at ΔF508-CFTR [2] (setting [5]), the “% Activation” value was found to be 215% and the EC50 turned out to be 1030 nM.

`O=C(O)c1cc(N2CCC(N3CCOCC3)CC2)c2c(C3CCC3)nn(-c3ccc(F)c(F)c3)c2n1` [compound 907, 3-cyclobutyl-1-(3,4-difluorophenyl)-4-[4-(morpholin-4-yl)piperidin-1-yl]-1H-pyrazolo[3,4-b]pyridine-6-carboxylic acid]: at ΔF508-CFTR [1], the “% Activation” value is reported as 483.65% and the EC50 came out at 183 nM. At ΔF508-CFTR [2] (setting [5]), the “% Activation” value was 270.7% and the EC50 amounted to 260 nM.

Take `CC(C)c1nn(-c2cccc(N3CCOCC3)c2)c2nc(C(=O)O)cc(-c3ccc(N4CCC(C#N)CC4)cc3)c12` [compound 206, 4-[4-(4-cyanopiperidin-1-yl)phenyl]-1-[3-(morpholin-4-yl)phenyl]-3-(propan-2-yl)-1H-pyrazolo[3,4-b]pyridine-6-carboxylic acid]: the “% Activation” value at ΔF508-CFTR [1] was found to be 661.63%; at ΔF508-CFTR [2] (setting [3]) it was 466.87%. The 50% effective concentration (EC50) on ΔF508-CFTR [1] was 246 nM; at ΔF508-CFTR [2] (setting [4]), 323 nM.

Take `COCCN(C)c1ccc(-c2cc(C(=O)O)nc3c2c(C(C)C)nn3-c2cccc(N3CCCC3)c2)cn1` [compound 253, 4-{6-[(2-methoxyethyl)(methyl)amino]pyridin-3-yl}-3-(propan-2-yl)-1-[3-(pyrrolidin-1-yl)phenyl]-1H-pyrazolo[3,4-b]pyridine-6-carboxylic acid]: the entries for the “% Activation” value on ΔF508-CFTR [1] and on ΔF508-CFTR [2] (setting [3]) were 568.13% and 375.87%, respectively. The EC50 on ΔF508-CFTR [1] was 425 nM; on ΔF508-CFTR [2] (setting [4]), 656 nM.

Regarding `CO[C@H]1C[C@@H](c2nn(-c3ccccc3)c3nc(C(=O)O)cc(-c4ccc(N5CCC(C#N)CC5)nc4)c32)C1` [compound 421, 4-[6-(4-cyanopiperidin-1-yl)pyridin-3-yl]-3-(cis-3-methoxycyclobutyl)-1-phenyl-1H-pyrazolo[3,4-b]pyridine-6-carboxylic acid], at ΔF508-CFTR [1], the “% Activation” value stood at 368.65% and the EC50 amounted to 723 nM. On ΔF508-CFTR [2] (setting [5]), the “% Activation” value amounted to 184.4% and the half-maximal effective concentration (EC50) was 1290 nM.

For the compound `O=C(O)c1cc(N2CCN(CC(=O)N3CCCC3)CC2)c2c(C3CCC3)nn(-c3ccccc3)c2n1` [compound 472, 3-cyclobutyl-4-{4-[2-oxo-2-(pyrrolidin-1-yl)ethyl]piperazin-1-yl}-1-phenyl-1H-pyrazolo[3,4-b]pyridine-6-carboxylic acid], on ΔF508-CFTR [1], the “% Activation” value turned out to be 292.55% and the 50% effective concentration (EC50) turned out to be 1380 nM. Further, on ΔF508-CFTR [2] (setting [5]), the “% Activation” value came to 144% and the half-maximal effective concentration (EC50) was 2490 nM.

Consider `O=C(O)c1cc(N2CCN(CC3CCCO3)CC2)c2c(C3CCC3)nn(-c3ccccc3)c2n1` (stereo not shown) [compound 681, 3-cyclobutyl-4-{4-[(oxolan-2-yl)methyl]piperazin-1-yl}-1-phenyl-1H-pyrazolo[3,4-b]pyridine-6-carboxylic acid], for which, on ΔF508-CFTR [1], the “% Activation” value is listed as 373.05% and the EC50 is 197 nM. At ΔF508-CFTR [2] (setting [5]), the “% Activation” value was determined as 220.95% and the EC50 stood at 408 nM.

With `CS(=O)(=O)N1CCC(F)(COc2cc(C(=O)O)nc3c2c(C2CCC2)nn3-c2ccccc2)CC1` [compound 626, 3-cyclobutyl-4-{[4-fluoro-1-(methanesulfonyl)piperidin-4-yl]methoxy}-1-phenyl-1H-pyrazolo[3,4-b]pyridine-6-carboxylic acid], the “% Activation” value at ΔF508-CFTR [1] came out at 398.15%; at ΔF508-CFTR [2] (setting [5]), 223.1%. Further, the EC50 on ΔF508-CFTR [1] was found to be 1010 nM; at ΔF508-CFTR [2] (setting [5]) it was 2710 nM.

Consider `Cc1nn(-c2ccccc2)c2nc(C(=O)O)cc(N3CCN(CC#N)CC3)c12` [compound 136, 4[4-(cyanomethyl)piperazin-1-yl]-3-methyl-1-phenyl-1H-pyrazolo[3,4-b]pyridine-6-carboxylic acid], for which the “% Activation” value at ΔF508-CFTR [1] was 189.95%; on ΔF508-CFTR [2] (setting [3]), 40.405%. In addition, the half-maximal effective concentration (EC50) at ΔF508-CFTR [1] and on ΔF508-CFTR [2] (setting [4]) was 3340 nM in each case.

For `CN1CCC([C@@H](F)COc2cc(C(=O)O)nc3c2c(C2CCC2)nn3-c2ccccc2)CC1` [compound 482, 3-cyclobutyl-4-[(2R)-2-fluoro-2-(1-methylpiperidin-4-yl)ethoxy]-1-phenyl-1H-pyrazolo[3,4-b]pyridine-6-carboxylic acid], the figures for the “% Activation” value on ΔF508-CFTR [1] and on ΔF508-CFTR [2] (setting [5]) were 284.7% and 144.75%, respectively. The EC50 is 709 nM on ΔF508-CFTR [1] and 1640 nM at ΔF508-CFTR [2] (setting [5]).

Consider `CC(C)c1nn(-c2cc(N3CCOCC3)ccn2)c2nc(C(=O)O)cc(-c3ccc(N4CCOCC4)cc3)c12` [compound 241, 4-[4-(morpholin-4-yl)phenyl]-1-[4-(morpholin-4-yl)pyridin-2-yl]-3-(propan-2-yl)-1H-pyrazolo[3,4-b]pyridine-6-carboxylic acid], for which the figures for the “% Activation” value on ΔF508-CFTR [1] and on ΔF508-CFTR [2] (setting [3]) were 259.75% and 60.46%, respectively. The EC50 on ΔF508-CFTR [1] worked out at 2140 nM; on ΔF508-CFTR [2] (setting [4]) it was 3340 nM.

Turning to `Cc1nn(-c2cccc(N(C)C)c2)c2nc(C(=O)O)cc(-c3cnc(N4CCOCC4)nc3)c12` [compound 90, 1-[3-(dimethylamino)phenyl]-3-methyl-4-[2-(morpholin-4-yl)pyrimidin-5-yl]-1H-pyrazolo[3,4-b]pyridine-6-carboxylic acid], the results for the “% Activation” value on ΔF508-CFTR [1] and on ΔF508-CFTR [2] (setting [3]) were 367.15% and 169.65%, respectively. For the same compound, the EC50 on ΔF508-CFTR [1] came to 883 nM; on ΔF508-CFTR [2] (setting [4]), 1040 nM.

For `CC1CN(c2cc(C(=O)O)nc3c2c(C2CCC2)nn3-c2ccccc2)C1` [compound 440, 3-cyclobutyl-4-(3-methylazetidin-1-yl)-1-phenyl-1H-pyrazolo[3,4-b]pyridine-6-carboxylic acid], the “% Activation” value was found to be 308.95% on ΔF508-CFTR [1] and 104.7% at ΔF508-CFTR [2] (setting [5]). In addition, the results for the concentration for a half-maximal effect (EC50) on ΔF508-CFTR [1] and at ΔF508-CFTR [2] (setting [5]) were 1930 nM and 1920 nM, respectively.
